Here are results for 12 molecules from patent US8138175B2, “Heterocyclyl compounds” (Hoffmann-La Roche Inc., priority 2008, dated 2012).

As a reminder, the IC50 is the concentration at which inhibition is half-maximal.

In this experiment the target is T1, human chemokine receptor 2 isoform B (Homo sapiens, UniProt P41597).
T1 construct: host or cells: CHOK1-CCR2B-A5 (CHO-K1) cells
T1 sequence (P41597 1-360 isoform P41597-2): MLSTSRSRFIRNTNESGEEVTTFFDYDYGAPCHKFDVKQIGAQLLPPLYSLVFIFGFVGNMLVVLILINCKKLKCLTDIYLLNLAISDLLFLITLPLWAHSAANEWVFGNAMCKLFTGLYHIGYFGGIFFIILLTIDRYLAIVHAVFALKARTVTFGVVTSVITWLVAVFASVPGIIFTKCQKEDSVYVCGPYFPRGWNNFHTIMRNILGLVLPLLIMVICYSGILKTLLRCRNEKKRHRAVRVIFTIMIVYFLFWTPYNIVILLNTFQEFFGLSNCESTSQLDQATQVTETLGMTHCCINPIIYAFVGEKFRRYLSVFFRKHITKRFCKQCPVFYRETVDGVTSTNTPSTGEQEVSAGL
Kind of experiment: Calcium mobilization assay. The format is cell-based. As to conditions: Ca mobilization assay for CCR2; CHOK1-CCR2B-A5 cells; antagonist activity against 20 nM MCP-1; FLIPR, Fluo-4. How it is done: Calcium Mobilization Assay
CHOK1-CCR2B-A5 cells (from Euroscreen) stably overexpressing the human chemokine receptor 2 isoform B were cultured in Nutrient Hams F12 medium supplemented with 5% FBS, 100 U/ml penicillin, 100 μg/ml streptomycin, 400 μg/ml G418 and 5 μg/ml puromycin.
For the assay cells were grown overnight in 384-well black clear flat bottom polystyrene plates (Costar) at 37° C. at 5% CO2. After washing with DMEM, 20 mM Hepes, 2.5 mM probenecid, 0.1% BSA (DMEM assay buffer) cells were loaded with 4 μM Fluo-4 in the same DMEM assay buffer for 2 hours at 30° C. Excess dye was removed and cells were washed with DMEM assay buffer. 384-well compound plates were prepared with DMEM assay buffer/0.5% dimethyl sulfoxide with or without various concentrations of test compounds. Usually compounds were tested for agonist and antagonist activity.
Test compounds were added to the assay plate and agonist activity was monitored as fluorescence for 80 seconds with a FLIPR (488 nm excitation; 510-570 nm emission; Molecular Devices). After 20-30 min. of incubation at 30° C., 20 nM MCP-1 (R&D; Roche) was added and fluorescence was monitored again for 80 seconds. Increases in intracellular calcium are reported as maximum fluorescence after agonist exposure minus basal fluorescence before exposure. Antagonist activity is indicated as inhibitor concentration required for 50% inhibition of specific calcium increases.
Take `CC1C(=O)N(C(CCN2CCC3(CC3)[C@H](O)C2)C(=O)N(C)C)CCN1c1cccc(OC(F)(F)F)c1` (stereo partly drawn) [Example 50, 4-((S)-4-Hydroxy-6-aza-spiro[2.5]oct-6-yl)-N,N-dimethyl-2-[3-methyl-2-oxo-4-(3-trifluoromethoxy-phenyl)-piperazin-1-yl]-butyramide]: the IC50 turned out to be 30 nM.

With `C[C@H]1C(=O)N(CCCN2CCCCC2)CCN1c1ccc(Cl)c(Cl)c1` [Example 72, (S)-4-(3,4-Dichloro-phenyl)-3-methyl-1-(3-piperidin-1-yl-propyl)-piperazin-2-one], the IC50 worked out at 306 nM.

`C[C@@H]1C(=O)N(CCCN2CCC3(CC3)[C@H](O)C2)CCN1c1ccc(C(F)(F)F)c(F)c1` [Example 103, (R)-4-(3-fluoro-4-trifluoromethyl-phenyl)-1-[3-((S)-4-hydroxy-6-aza-spiro[2.5]oct-6-yl)-propyl]-3-methyl-piperazin-2-one]: the IC50 was found to be 92 nM.

With `CC[C@H]1C(=O)N(CCCN2CCC3(CC3)[C@H](O)C2)CCN1c1ccc(Cl)c(Cl)c1` [Example 87, (S)-4-(3,4-Dichloro-phenyl)-3-ethyl-1-[3-((S)-4-hydroxy-6-aza-spiro[2.5]oct-6-yl)-propyl]-piperazin-2-one], the IC50 is 53 nM.

Regarding `CN(C)C(=O)C(CCN1CCC2(CC2)[C@H](O)C1)N1CCN(c2cccc(C(F)(F)F)c2)CCC1=O` (stereo partly drawn) [Example 17, (R,S)-4-((S)-4-Hydroxy-6-aza-spiro[2.5]oct-6-yl)-N,N-dimethyl-2-[7-oxo-4-(3-trifluoromethyl-phenyl)-[1,4]diazepan-1-yl]-butyramide], the IC50 was 140 nM.

Take `CC1CN(C(CO)CCN2CCC3(CC3)[C@H](O)C2)C(=O)CCN1c1ccc(Cl)c(Cl)c1` (stereo in doubt) [Example 69, (R)-1-(3,4-Dichloro-phenyl)-4-[(S)-3-((S)-4-hydroxy-6-aza-spiro[2.5]oct-6-yl)-1-hydroxymethyl-propyl]-2-methyl-[1,4]diazepan-5-one]: the IC50 is 11 nM.

As for `CC1C(=O)N(CC2CCCN(C)C2)CCN1c1cccc(C(F)(F)F)c1` (stereo not drawn) [Example 58, 3-Methyl-1-(1-methyl-piperidin-3-ylmethyl)-4-(3-trifluoromethyl-phenyl)-piperazin-2-one], the IC50 is 680 nM.

`COC(=O)[C@H](CCN1CCC2(CC2)[C@H](O)C1)N1CC(C)N(c2ccc(Cl)c(Cl)c2)CCC1=O` (mixture of isomers) [Example 67, (S)-2-[(R,S)-4-(3,4-dichloro-phenyl)-3-methyl-7-oxo-[1,4]diazepan-1-yl]-4-((S)-4-hydroxy-6-aza-spiro[2.5]oct-6-yl)-butyric acid methyl ester]: the IC50 turned out to be 52 nM.

With `C[C@H]1C(=O)N(CCCN2CCCCC2)CCN1c1cccc(OC(F)(F)F)c1` [Example 42, (S)-3-Methyl-1-(3-piperidin-1-yl-propyl)-4-(3-trifluoromethoxy-phenyl)-piperazin-2-one], the IC50 came to 180 nM.

Regarding `COCC(CCN1CCC2(CC2)[C@H](O)C1)N1CCN(c2cccc(C(F)(F)F)c2)C(C)C1=O` (stereo partly drawn) [Example 56, 1-[3-((S)-4-Hydroxy-6-aza-spiro[2.5]oct-6-yl)-1-methoxymethyl-propyl]-3-methyl-4-(3-trifluoromethyl-phenyl)-piperazin-2-one], the IC50 was found to be 10 nM.

Turning to `CC[C@@H]1C(=O)N(CCCN2CCC3(CC3)[C@H](O)C2)CCN1c1ccc(Cl)c(Cl)c1` [Example 88, (R)-4-(3,4-dichloro-phenyl)-3-ethyl-1-[3-((S)-4-hydroxy-6-aza-spiro[2.5]oct-6-yl)-propyl]-piperazin-2-one], the IC50 amounted to 325 nM.

For the molecule `COC(=O)[C@H](CCN1CCC2(CC2)[C@H](O)C1)N1C[C@H](C)N(c2ccc(Cl)c(Cl)c2)CCC1=O` [Example 66, (S)-2-[(S)-4-(3,4-dichloro-phenyl)-3-methyl-7-oxo-[1,4]diazepan-1-yl]-4-((S)-4-hydroxy-6-aza-spiro[2.5]oct-6-yl)-butyric acid methyl ester], the IC50 stood at 546 nM.
